Experimental data reported in patent US10059723B2 (BIOMARIN PHARMACEUTICAL INC., priority 2011, dated 2018).

Key:
[1] = Brain penetration studies;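 note: compound levels in brain and plasma quantified by LC/MS/MS, sampled from pre-dose up to 4 h after dosing, three mice per dose and time point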; type: in vivo; details: C57/BL6/J, mouse, brain and plasma; mice, s.c. 5 or 50 mg/kg or i.v. 5 mg/kg; read-out: BPR (brain/plasma ratio, Cmax(brain)/Cmax(plasma))
Description: Test compounds were prepared at either 0.5 mg/ml or 5 mg/ml in 30% hydroxypropyl-β-cyclodextrin, 100 mM sodium acetate pH 5.5, 5% DMSO. C57/BL6/J mice were dosed s.c. at 5 mg/kg or 50 mg/kg, or i.v. at 5 mg/kg. Animals were euthanized at pre-dose, 5, 15, 30 min, 1, 2 and 4 hours post-dose and plasma and brain obtained. Three animals per dose per time points were used. The levels of compound in the plasma and brain were determined by standard LC/MS/MS methods. Brain/plasma ratio (BPR) was calculated as the ratio of the Cmax(brain)/Cmax(plasma).

[2] = tested on: GM 15850 (lymphoblastoid cells line) cells; assay: In-cell deacetylase inhibition assay (DAC assay); type: cell-based; details: Homo sapiens, GM15850; GM 15850 cells, 4 h incubation; read-out: 850 DAC (in-cell deacetylase inhibition IC50)
Description: Compound dilutions were made in 100% DMSO followed by parallel dilution in media with 2% DMSO. 10 μl of the compound dilutions were added to the cells to achieve the desired concentrations. The final concentration of DMSO in each well was 0.2%. The cells were incubated for 4 h at 37° C. with 5% CO2. After incubation, the cells were centrifuged down and the supernatant was removed. […] The reaction was stopped after 30 min incubation by addition of 50 μL developer (6 mg/mL trypsin in HDAC assay buffer). The reaction was allowed to develop for 30 min at room temperature and the fluorescence signal was detected using a fluorometer (Spectramax M2, Molecular Devices, Sunnyvale, Calif.) with excitation and emission wavelengths of 360 nm and 470 nm respectively. The data was fitted to a sigmoidal dose response equation with variable slope in GraphPad Prism 5.0 (GraphPad Software, La Jolla, Calif.) to determine IC50. Bottom and top of the curve were fixed to the average fluorescence response of control wells with no cells and cells but no compound respectively.

[3] = tested on: HCT116 cells; assay: Cell proliferation assay; type: cell-based; details: Homo sapiens, HCT-116, 72 h, read-out: Hct-116 (anti-proliferation IC50)
Description: HCT116 cells (5000 cells/well) in 80 μL McCoy's 5A medium containing 10% v/v FBS, 1% v/v penicillin/streptomycin and 1% v/v L-glutamine were incubated in 96-well plates with compounds at various concentrations for 72 h at 37° C. in a 5% CO2 atmosphere. The compound dilutions were made in 100% DMSO followed by parallel dilutions in media. The final concentration of DMSO in each well was 0.05%. After 72 h, 20 μL of Cell titer 96 aqueous one solution (Promega Corporation, Madison, Wis.) were added to the cells and the plate was incubated at 37° C. for another 4 h. The absorbance at 490 nm was then recorded on a 96-well plate reader (Spectramax M2, Molecular Devices, Sunnyvale, Calif.). Data analysis was performed in Microsoft Excel (Microsoft Corp, Redmond, Wash.).

[4] = target: T1, HDAC1 (Homo sapiens, UniProt Q13547); assay: HDAC activity inhibition assay, HDAC1; type: biochemical; details: 2 hours pre-incubation, Fluor-de-Lys substrate 10 μM
T1 construct: purchased BPS Bioscience 50051
Description: The HDAC activity inhibition assay was performed as follows to determine the ability of a test compound to inhibit HDAC enzymatic activity. […] Following pre-incubation, Fluor-de-Lys™ substrate (Enzo Life Sciences, Plymouth Meeting, Pa., BML-KI104-0050) was added to a final concentration of 10 μM and plates were further incubated for 30 minutes at room temperature. […] IC50 values were calculated by using a sigmoidal dose-response (variable slope) equation in GraphPad Prism® 5 for Windows (GraphPad Software, La Jolla, Calif.).

[5] = tested on: C57BL/6J male mice; assay: Long term memory for object recognition; type: in vivo; details: s.c. 3, 10, 30 mg/kg
Description: C57BL/6J male mice were handled 1-2 min for 5 days and were habituated to the experimental apparatus 5 min a day for 4 consecutive days in the absence of objects. […] 24-h later mice were tested for memory retention (5 min) using the object recognition memory task (ORM), in which a familiar object was replaced with a novel one. All training and testing trials were videotaped and analyzed by individuals blind to the treatment condition and the genotype of subjects. A mouse was scored as exploring an object when its head was oriented toward the object within a distance of 1 cm or when the nose was touching the object. The relative exploration time was recorded and expressed by a discrimination index [DI=(tnovel−tfamiliar)/(tnovel+tfamiliar)×100].

T1 sequence (Q13547 whole entry): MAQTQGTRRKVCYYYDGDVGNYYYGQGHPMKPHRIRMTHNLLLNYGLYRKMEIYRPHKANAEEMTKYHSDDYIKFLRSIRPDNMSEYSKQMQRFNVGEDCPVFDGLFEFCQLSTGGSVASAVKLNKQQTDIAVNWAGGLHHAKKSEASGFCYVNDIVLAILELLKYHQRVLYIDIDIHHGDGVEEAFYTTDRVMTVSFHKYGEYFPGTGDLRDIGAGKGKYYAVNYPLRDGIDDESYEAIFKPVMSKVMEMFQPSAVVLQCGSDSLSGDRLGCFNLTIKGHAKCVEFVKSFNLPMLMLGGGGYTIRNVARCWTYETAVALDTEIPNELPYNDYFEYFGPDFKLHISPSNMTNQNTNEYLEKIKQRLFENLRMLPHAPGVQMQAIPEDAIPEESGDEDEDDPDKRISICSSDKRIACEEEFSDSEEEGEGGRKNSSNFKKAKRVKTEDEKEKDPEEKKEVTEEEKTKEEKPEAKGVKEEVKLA

Kp [1] | IC50 [2] [µM] | IC50 [3] [µM] | SMILES | IC50 [4] [µM] | dose dependence of the effect on long-term memory [5]
0.2 to 0.5 | 1 to 5 | < 5 | Nc1ccccc1NC(=O)/C=C/c1cnn(CCCc2ccccc2)c1 [D8] |  | 
0.5 to 1 | 1 to 5 | 5 to 10 | Nc1ccccc1NC(=O)/C=C/c1cnn(CCCCc2ccccc2)c1 [D9] |  | 
0.5 to 1 | 5 to 10 | > 20 | Nc1ccccc1NC(=O)/C=C/c1cnn(CC(F)(F)c2ccccc2)c1 [D10] |  | 
> 1 | 1 to 5 |  | Nc1ccccc1NC(=O)/C=C/c1cnn(CC/C=C/c2ccccc2)c1 [D11] |  | 
0.5 to 1 | 1 to 5 |  | CN(CCCn1cc(/C=C/C(=O)Nc2ccccc2N)cn1)c1ccccc1 [D12] |  | 
< 0.1 | 1 to 5 |  | Nc1ccccc1NC(=O)/C=C/c1cnn(CCc2c[nH]c3ccccc23)c1 [D13] |  | 
 | 5 to 10 |  | Nc1ccccc1NC(=O)/C=C/c1cnn(CCOCc2ccccc2)c1 [D14] |  | 
 | 1 to 5 |  | Nc1ccccc1NC(=O)/C=C/c1cnn(CCCOc2ccccc2)c1 [D15] |  | 
 | 10 to 20 |  | Nc1cc(F)ccc1NC(=O)/C=C/c1cnn(CCOc2ccccc2)c1 [D16] |  | 
 | > 20 |  | CCOCc1cn2cc(/C=C/C(=O)Nc3ccccc3N)sc2n1 [E1, (E)-N-(2-aminophenyl)-3-(6-(ethoxymethyl)imidazo[2,1-b]thiazol-2-yl)acrylamide] |  | 
> 1 | 10 to 20 | > 20 | Nc1ccccc1NC(=O)/C=C/c1csc(CC=Cc2ccccc2)n1 [E2, (E)-N-(2-aminophenyl)-3-(2-cinnamylthiazol-4-yl)acrylamide] |  | 
< 0.1 | > 20 |  | Nc1ccccc1NC(=O)c1ccc(C=C2CCN(C(=O)OCc3ccccc3)CC2)cc1 [F1] |  | 
> 1 | 10 to 20 | < 5 | Nc1ccccc1NC(=O)c1ccc(C=C2CCN(Cc3cccnc3)CC2)cc1 [F2] |  | 
0.2 to 0.5 | 1 to 5 | < 5 | Nc1ccccc1NC(=O)c1ccc(C=C2CN(Cc3ccc4cc[nH]c4c3)C2)cc1 [F3] |  | 
0.5 to 1 | 1 to 5 | < 5 | Nc1ccccc1NC(=O)c1ccc(CC2CN(Cc3ccc4cc[nH]c4c3)C2)cc1 [F4] |  | 
 | 5 to 10 |  | Nc1ccccc1NC(=O)c1ccc(C=C2CN(Cc3ccc4cc[nH]c4c3)C2)c(Cl)c1 [F5, 4-((1-((1H-Indol-6-yl)methyl)azetidin-3-ylidene)methyl)-N-(2-aminophenyl)-3-chlorobenzamide] |  | 
 | 10 to 20 |  | Nc1ccccc1NC(=O)c1ccc(C=C2CN(Cc3cccnc3)C2)c(Cl)c1 [F6] |  | 

Second part, the compound before the results:

SMILES | Kp [1] | IC50 [2] [µM] | IC50 [3] [µM] | IC50 [4] [µM] | dose dependence of the effect on long-term memory [5]
Cc1nc(/C=C/C(=O)Nc2ccccc2N)cs1 [A1] | 0.5 to 1 | > 20 |  |  | 
Cn1cc(/C=C/C(=O)Nc2ccccc2N)cn1 [A2] | 0.5 to 1 | 10 to 20 | > 20 |  | 
Cc1ncc(/C=C/C(=O)Nc2ccccc2N)s1 [A3] |  | > 20 |  |  | 
Cc1cc(/C=C/C(=O)Nc2ccccc2N)on1 [A5] | 0.2 to 0.5 |  |  |  | 
Nc1ccccc1NC(=O)/C=C/c1cnc2ccccn12 [A6, (E)-N-(2-aminophenyl)-3-(imidazo[1,2-a]pyridin-3-yl)acrylamide] | 0.1 to 0.2 | > 20 | 10 to 20 |  | 
Cn1ccc(/C=C/C(=O)Nc2ccccc2N)n1 [A7] | 0.5 to 1 | > 20 |  |  | 
Nc1ccccc1NC(=O)/C=C/c1cc2ccccn2n1 [A8] | 0.5 to 1 | 10 to 20 |  |  | 
Nc1ccccc1NC(=O)/C=C/c1cn2ccccc2n1 [A9] |  | > 20 |  |  | 
Nc1ccccc1NC(=O)/C=C/c1cn2ccnc2s1 [A10] | 0.2 to 0.5 | 10 to 20 |  |  | 
Nc1ccccc1NC(=O)/C=C/c1cnn(-c2ccccc2)c1 [A11] | > 1 |  |  |  | 
Cn1cnc(/C=C/C(=O)Nc2ccccc2N)c1 [A12] |  | > 20 |  |  | 
Nc1ccccc1NC(=O)/C=C/c1cnn(CC2CC2)c1 [B1] |  | 10 to 20 |  |  | 
Nc1ccccc1NC(=O)/C=C/c1cnn(C/C=C/c2ccc(F)cc2)c1 [B2] |  | 5 to 10 |  |  | 
Nc1ccccc1NC(=O)/C=C/c1cnn(CCOc2cc(F)cc(F)c2)c1 [B3, (E)-N-(2-aminophenyl)-3-(1-(2-(3,5-difluorophenoxy)ethyl)-1H-pyrazol-4-yl)acrylamide] | 0.2 to 0.5 | 1 to 5 |  |  | 
Nc1ccccc1NC(=O)/C=C/c1cnn(CCOc2ccc(C(F)(F)F)cc2)c1 [B4] | 0.2 to 0.5 | 10 to 20 |  |  | 
Nc1ccccc1NC(=O)/C=C/c1cnn(CCOc2cc(F)cc(Cl)c2)c1 [B5, (E)-N-(2-aminophenyl)-3-(1-(2-(3-chloro-5-fluorophenoxy)ethyl)-1H-pyrazol-4-yl)acrylamide] | 0.2 to 0.5 | 5 to 10 |  |  | 
Nc1ccccc1NC(=O)/C=C/c1cnn(CCOc2ccc(F)cc2)c1 [B6] |  | 5 to 10 |  |  | 
CCn1cc(/C=C/C(=O)Nc2ccccc2N)cn1 [C1] | 0.5 to 1 | > 20 |  |  | 
Cn1cc(/C=C/C(=O)Nc2ccc(F)cc2N)cn1 [C2] |  |  |  | > 20 | 
Cn1cc(/C=C/C(=O)Nc2cc(F)ccc2N)cn1 [C3] |  | > 20 |  |  | 
Nc1cc(F)ccc1NC(=O)/C=C/c1cnn(C/C=C/c2ccccc2)c1 [D2, (E)-N-(2-amino-4-fluorophenyl)-3-(1-cinnamyl-1H-pyrazol-4-yl)acrylamide] | 0.2 to 0.5 | > 20 | > 20 |  | no effect of dose
Nc1ccccc1NC(=O)/C=C/c1cnn(CCOc2ccccc2)c1 [D3, (E)-N-(2-aminophenyl)-3-(1-(2-phenoxyethyl)-1H-pyrazol-4-yl)acrylamide] | 0.2 to 0.5 | 1 to 5 | < 5 |  | 
Nc1ccccc1NC(=O)/C=C/c1cnn(Cc2ccccc2)c1 [D4] | 0.2 to 0.5 | 5 to 10 | > 20 |  | 
Nc1ccccc1NC(=O)/C=C/c1cnn(Cc2ccc(F)cc2)c1 [D5] | 0.1 to 0.2 | 5 to 10 | > 20 |  | 
Cc1cccc(Cn2cc(/C=C/C(=O)Nc3ccccc3N)cn2)n1 [D6] | < 0.1 | 10 to 20 | > 20 |  | 
Nc1ccccc1NC(=O)/C=C/c1cnn(CCc2ccccc2)c1 [D7] | 0.5 to 1 | 5 to 10 | < 5 |  | 
CN1CCC(Cn2cc(/C=C/C(=O)Nc3ccccc3N)cn2)CC1 [G1, (E)-N-(2-aminophenyl)-3-(1-((1-methylpiperidin-4-yl)methyl)-1H-pyrazol-4-yl)acrylamide] |  |  | > 20 |  | 
Cc1nn(C/C=C/c2ccccc2)c(C)c1/C=C/C(=O)Nc1ccccc1N [G2, (E)-N-(2-aminophenyl)-3-(1-cinnamyl-3,5-dimethyl-1H-pyrazol-4-yl)acrylamide] |  |  | > 20 |  | 
Cc1ccc(C(=O)NCCCCCC(=O)Nc2ccc(F)cc2N)cc1 [RGFP 136, reference compound] |  |  |  |  | Dose dependent effects
